Read-outs that look alike come from different tables or passages of the source.
Columns and labels:
EGFR Del19/T790M/C797S = EGFR Del19/T790M/C797S (Homo sapiens, UniProt P00533, C797S/DEL746-750/T790M); experiment: Biochemical EGFR kinase inhibition assay (Lance Ultra TR-FRET), triple mutant del19/T790M/C797S
In short: (§1)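 Kinase activity is measured by TR-FRET phosphopeptide detection. Compounds span 0.003 μM to 10 μM; the 1 h reaction at room temperature is quenched with EDTA, then labelled antibody (2 nM) is incubated 60 min before reading.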

EGFR L858R/T790M/C797S = EGFR L858R/T790M/C797S (Homo sapiens, UniProt P00533, C797S/L858R/T790M); experiment: Biochemical EGFR kinase inhibition assay (Lance Ultra TR-FRET), triple mutant L858R/T790M/C797S
In short: as §1

EGFR Del19/C797S = EGFR Del19/C797S (Homo sapiens, UniProt P00533, C797S/DEL746-750); experiment: Biochemical EGFR kinase inhibition assay (Lance Ultra TR-FRET), double mutant del19/C797S
In short: as §1

EGFR L858R/C797S = EGFR L858R/C797S (Homo sapiens, UniProt P00533, C797S/L858R); experiment: Biochemical EGFR kinase inhibition assay (Lance Ultra TR-FRET), double mutant L858R/C797S
In short: as §1

EGFR wildtype (WT) = EGFR wildtype (WT) (Homo sapiens, UniProt P00533); experiment: Biochemical EGFR kinase inhibition assay (Lance Ultra TR-FRET), wildtype
In short: as §1

[1] = ATP at Km, read-out: IC50 Del19/T790M/C797S (nM), Km ATP
[2] = IC50 Del19/T790M/C797S (nM), 100 μM ATP
[3] = ATP at Km, read-out: IC50 L858R/T790M/C797S (nM), Km ATP
[4] = IC50 L858R/T790M/C797S (nM), 100 μM ATP
[5] = ATP at Km, read-out: IC50 Del19/C797S (nM), Km ATP
[6] = IC50 Del19/C797S (nM), 100 μM ATP
[7] = ATP at Km, read-out: IC50 L858R/C797S (nM), Km ATP
[8] = IC50 L858R/C797S (nM), 100 μM ATP
[9] = ATP at Km, read-out: IC50 WT (nM), Km ATP
[10] = Km ATP, read-out: IC50 Del19/T790M/C797S (nM), Km ATP
[11] = Km ATP, read-out: IC50 L858R/T790M/C797S (nM), Km ATP
[12] = Km ATP, read-out: IC50 Del19/C797S (nM), Km ATP
[13] = Km ATP, read-out: IC50 L858R/C797S (nM), Km ATP
[14] = Km ATP, read-out: IC50 WT (nM), Km ATP

Chain of EGFR L858R/T790M/C797S (P00533 25-1210 T790M/C797S/L858R): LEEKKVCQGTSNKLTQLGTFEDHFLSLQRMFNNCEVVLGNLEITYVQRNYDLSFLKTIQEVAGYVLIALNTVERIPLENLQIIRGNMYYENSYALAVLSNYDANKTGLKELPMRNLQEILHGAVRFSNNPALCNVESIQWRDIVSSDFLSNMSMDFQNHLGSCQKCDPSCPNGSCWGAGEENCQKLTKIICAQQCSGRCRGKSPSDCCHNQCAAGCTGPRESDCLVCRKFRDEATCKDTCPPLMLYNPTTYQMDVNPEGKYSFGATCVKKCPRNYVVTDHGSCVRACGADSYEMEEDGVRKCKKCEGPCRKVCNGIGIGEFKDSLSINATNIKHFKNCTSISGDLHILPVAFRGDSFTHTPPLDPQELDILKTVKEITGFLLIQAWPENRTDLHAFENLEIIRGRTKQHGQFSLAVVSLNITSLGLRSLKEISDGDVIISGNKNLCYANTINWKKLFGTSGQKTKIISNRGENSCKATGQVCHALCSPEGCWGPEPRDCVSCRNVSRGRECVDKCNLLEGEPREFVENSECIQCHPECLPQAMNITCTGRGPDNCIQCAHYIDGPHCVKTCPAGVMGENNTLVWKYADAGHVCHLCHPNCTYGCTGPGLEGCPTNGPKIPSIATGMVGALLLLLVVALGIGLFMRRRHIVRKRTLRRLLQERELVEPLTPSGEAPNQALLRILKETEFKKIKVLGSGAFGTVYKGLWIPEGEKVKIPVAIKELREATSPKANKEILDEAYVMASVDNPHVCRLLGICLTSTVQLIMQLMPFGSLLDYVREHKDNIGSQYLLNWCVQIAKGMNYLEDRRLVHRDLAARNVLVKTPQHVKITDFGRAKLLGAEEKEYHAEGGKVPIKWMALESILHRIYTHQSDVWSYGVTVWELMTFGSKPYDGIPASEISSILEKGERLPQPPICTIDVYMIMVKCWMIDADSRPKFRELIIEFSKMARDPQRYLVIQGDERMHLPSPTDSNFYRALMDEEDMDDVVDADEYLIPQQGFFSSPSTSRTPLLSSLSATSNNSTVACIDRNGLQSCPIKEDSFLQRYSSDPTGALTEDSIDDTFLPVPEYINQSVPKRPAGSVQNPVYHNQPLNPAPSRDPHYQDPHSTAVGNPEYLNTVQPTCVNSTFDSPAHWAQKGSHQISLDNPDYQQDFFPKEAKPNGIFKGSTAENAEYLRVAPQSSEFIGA
Chain of EGFR wildtype (WT) (P00533 25-1210): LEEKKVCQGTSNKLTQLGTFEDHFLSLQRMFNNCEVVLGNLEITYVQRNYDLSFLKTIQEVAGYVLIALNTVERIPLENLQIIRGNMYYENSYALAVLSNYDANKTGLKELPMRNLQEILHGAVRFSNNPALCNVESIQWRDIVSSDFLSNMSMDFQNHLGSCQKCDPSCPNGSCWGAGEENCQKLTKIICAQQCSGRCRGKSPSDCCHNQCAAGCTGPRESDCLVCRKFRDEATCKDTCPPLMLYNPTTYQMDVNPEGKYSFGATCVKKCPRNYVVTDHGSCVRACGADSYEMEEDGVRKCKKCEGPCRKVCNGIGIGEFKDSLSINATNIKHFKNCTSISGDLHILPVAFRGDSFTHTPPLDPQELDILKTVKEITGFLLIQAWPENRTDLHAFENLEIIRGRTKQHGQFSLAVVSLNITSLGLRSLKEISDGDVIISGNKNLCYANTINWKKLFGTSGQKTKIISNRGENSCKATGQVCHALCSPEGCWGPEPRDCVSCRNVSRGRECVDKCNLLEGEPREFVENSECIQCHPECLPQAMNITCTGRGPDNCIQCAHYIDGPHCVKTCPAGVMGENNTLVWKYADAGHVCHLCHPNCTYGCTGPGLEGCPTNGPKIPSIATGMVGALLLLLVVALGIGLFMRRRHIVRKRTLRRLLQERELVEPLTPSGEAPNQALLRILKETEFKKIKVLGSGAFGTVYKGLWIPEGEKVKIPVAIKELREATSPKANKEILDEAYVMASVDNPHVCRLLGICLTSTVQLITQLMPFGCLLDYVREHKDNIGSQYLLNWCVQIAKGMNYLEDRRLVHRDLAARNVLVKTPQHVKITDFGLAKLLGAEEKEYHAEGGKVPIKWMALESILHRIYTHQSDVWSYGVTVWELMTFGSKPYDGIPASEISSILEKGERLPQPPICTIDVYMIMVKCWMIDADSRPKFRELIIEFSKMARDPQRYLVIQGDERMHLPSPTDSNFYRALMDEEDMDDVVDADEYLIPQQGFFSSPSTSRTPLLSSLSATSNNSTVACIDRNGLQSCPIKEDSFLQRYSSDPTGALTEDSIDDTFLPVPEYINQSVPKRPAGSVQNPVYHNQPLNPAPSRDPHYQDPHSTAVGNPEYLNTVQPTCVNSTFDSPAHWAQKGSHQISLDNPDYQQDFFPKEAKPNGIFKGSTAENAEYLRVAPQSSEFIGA
Chain of EGFR L858R/C797S (P00533 25-1210 C797S/L858R): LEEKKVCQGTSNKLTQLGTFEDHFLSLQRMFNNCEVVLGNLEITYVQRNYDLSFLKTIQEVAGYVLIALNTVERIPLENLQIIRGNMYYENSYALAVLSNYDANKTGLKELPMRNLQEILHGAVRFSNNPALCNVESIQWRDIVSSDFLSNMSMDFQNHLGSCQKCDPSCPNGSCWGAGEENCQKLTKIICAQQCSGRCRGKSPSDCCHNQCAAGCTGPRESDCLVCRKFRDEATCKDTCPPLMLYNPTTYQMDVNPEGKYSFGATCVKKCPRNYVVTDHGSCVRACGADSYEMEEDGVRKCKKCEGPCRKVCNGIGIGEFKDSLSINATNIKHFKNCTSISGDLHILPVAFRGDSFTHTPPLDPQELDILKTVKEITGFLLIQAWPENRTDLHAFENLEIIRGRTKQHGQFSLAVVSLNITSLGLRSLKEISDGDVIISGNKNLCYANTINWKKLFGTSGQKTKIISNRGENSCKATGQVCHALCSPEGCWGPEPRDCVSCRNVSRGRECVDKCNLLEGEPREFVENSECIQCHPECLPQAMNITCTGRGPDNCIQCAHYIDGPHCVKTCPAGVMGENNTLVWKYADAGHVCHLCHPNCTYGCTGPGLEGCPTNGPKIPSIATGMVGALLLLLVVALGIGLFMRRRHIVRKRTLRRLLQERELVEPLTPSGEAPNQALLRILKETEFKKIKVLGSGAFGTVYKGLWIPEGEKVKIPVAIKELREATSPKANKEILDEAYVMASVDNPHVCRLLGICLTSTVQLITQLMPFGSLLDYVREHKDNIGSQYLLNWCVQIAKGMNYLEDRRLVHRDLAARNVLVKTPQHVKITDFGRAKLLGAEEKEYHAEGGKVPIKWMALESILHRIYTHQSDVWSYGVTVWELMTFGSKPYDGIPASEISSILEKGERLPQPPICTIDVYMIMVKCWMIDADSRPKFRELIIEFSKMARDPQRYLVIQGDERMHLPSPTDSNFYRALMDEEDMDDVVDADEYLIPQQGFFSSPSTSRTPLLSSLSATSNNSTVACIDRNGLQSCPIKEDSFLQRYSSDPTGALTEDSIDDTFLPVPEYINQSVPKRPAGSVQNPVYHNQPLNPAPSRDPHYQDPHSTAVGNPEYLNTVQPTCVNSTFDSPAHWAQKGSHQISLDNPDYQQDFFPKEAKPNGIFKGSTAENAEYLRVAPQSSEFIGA
Chain of EGFR Del19/C797S (P00533 with tags, fused parts or gaps DEL746-750/C797S): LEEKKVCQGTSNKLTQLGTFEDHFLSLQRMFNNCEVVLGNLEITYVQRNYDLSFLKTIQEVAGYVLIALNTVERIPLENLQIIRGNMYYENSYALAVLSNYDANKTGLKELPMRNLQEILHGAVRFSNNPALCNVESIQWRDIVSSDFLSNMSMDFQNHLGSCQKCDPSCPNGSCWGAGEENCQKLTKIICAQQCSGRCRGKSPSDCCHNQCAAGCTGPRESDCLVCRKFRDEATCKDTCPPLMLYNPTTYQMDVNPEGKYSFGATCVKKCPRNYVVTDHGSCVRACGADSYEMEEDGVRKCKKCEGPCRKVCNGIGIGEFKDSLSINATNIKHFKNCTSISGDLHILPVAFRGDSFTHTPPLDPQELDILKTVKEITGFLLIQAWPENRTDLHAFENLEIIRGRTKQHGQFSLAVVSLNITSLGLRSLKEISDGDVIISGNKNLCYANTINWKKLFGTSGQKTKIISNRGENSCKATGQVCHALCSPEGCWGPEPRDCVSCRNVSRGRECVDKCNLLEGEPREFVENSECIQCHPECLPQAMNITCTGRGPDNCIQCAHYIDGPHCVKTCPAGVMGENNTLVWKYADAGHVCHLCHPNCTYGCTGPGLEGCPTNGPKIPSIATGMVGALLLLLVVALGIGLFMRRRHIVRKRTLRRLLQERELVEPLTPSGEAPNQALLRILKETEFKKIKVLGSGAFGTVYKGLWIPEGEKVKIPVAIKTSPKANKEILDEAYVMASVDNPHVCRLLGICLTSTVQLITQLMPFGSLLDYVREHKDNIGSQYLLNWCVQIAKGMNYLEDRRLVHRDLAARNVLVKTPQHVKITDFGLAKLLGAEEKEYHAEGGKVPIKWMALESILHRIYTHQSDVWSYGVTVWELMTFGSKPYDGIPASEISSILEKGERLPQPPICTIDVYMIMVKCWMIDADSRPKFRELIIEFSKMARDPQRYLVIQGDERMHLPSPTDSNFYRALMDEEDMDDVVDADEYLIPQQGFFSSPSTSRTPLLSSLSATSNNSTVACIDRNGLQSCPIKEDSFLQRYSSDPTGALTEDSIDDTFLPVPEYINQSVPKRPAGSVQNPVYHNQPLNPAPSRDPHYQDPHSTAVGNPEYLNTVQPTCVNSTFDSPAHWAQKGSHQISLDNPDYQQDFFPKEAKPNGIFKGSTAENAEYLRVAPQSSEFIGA

IC50 (EGFR Del19/T790M/C797S; [1]) | IC50 (EGFR Del19/T790M/C797S; [2]) | IC50 (EGFR L858R/T790M/C797S; [3]) | IC50 (EGFR L858R/T790M/C797S; [4]) | IC50 (EGFR Del19/C797S; [5]) | IC50 (EGFR Del19/C797S; [6]) | IC50 (EGFR L858R/C797S; [7]) | IC50 (EGFR L858R/C797S; [8]) | IC50 (EGFR wildtype (WT); [9]) | IC50 (EGFR wildtype (WT); IC50 WT (nM), 100 μM ATP) | IC50 (EGFR Del19/T790M/C797S; [10]) | IC50 (EGFR L858R/T790M/C797S; [11]) | IC50 (EGFR Del19/C797S; [12]) | IC50 (EGFR L858R/C797S; [13]) | IC50 (EGFR wildtype (WT); [14]) | SMILES
 |  |  |  |  |  |  |  |  |  | 165 nM | 51.7 nM | 268 nM | 69.3 nM | 564 nM | CC1(CO)CCN(c2cc(Nc3ccnc(N4CCN(S(=O)(=O)C5CC5)CC4)n3)ncc2C#Cc2cnn(C(F)(F)F)c2)CC1 [Example 449, (1-(2-((2-(4-(Cyclopropylsulfonyl)piperazin-1-yl)pyrimidin-4-yl)amino)-5-((1-(trifluoromethyl)-1H-pyrazol-4-yl)ethynyl)pyridin-4-yl)-4-methylpiperidin-4-yl)methanol]
 | 0.2 nM |  | 0.3 nM |  | 2.4 nM |  | 80.1 nM |  | > 10000 nM | 0.3 nM | 0.2 nM | 2.7 nM | 3.2 nM | 12 nM | O=S(=O)(C1CC1)n1cc(-c2nccc(Nc3cc(N[C@H]4CC[C@@H](O)CC4)c(C#CC4C[C@@H]5CC[C@@H]4O5)cn3)n2)cn1 (stereo partly drawn) [Example 427, (1s,4s)-4-((5-((7-Oxabicyclo[2.2.1]heptan-2-yl)ethynyl)-2-((2-(1-(cyclopropylsulfonyl)-1H-pyrazol-4-yl)pyrimidin-4-yl)amino)pyridin-4-yl)amino)cyclohexan-1-ol]

Second part, the compound before the results:

SMILES | IC50 (EGFR Del19/T790M/C797S; [1]) | IC50 (EGFR Del19/T790M/C797S; [2]) | IC50 (EGFR L858R/T790M/C797S; [3]) | IC50 (EGFR L858R/T790M/C797S; [4]) | IC50 (EGFR Del19/C797S; [5]) | IC50 (EGFR Del19/C797S; [6]) | IC50 (EGFR L858R/C797S; [7]) | IC50 (EGFR L858R/C797S; [8]) | IC50 (EGFR wildtype (WT); [9]) | IC50 (EGFR wildtype (WT); IC50 WT (nM), 100 μM ATP) | IC50 (EGFR Del19/T790M/C797S; [10]) | IC50 (EGFR L858R/T790M/C797S; [11]) | IC50 (EGFR Del19/C797S; [12]) | IC50 (EGFR L858R/C797S; [13]) | IC50 (EGFR wildtype (WT); [14])
CN1CCN(Cc2ccc(C#Cc3cnc(Nc4ccnc(-c5cnn(S(=O)(=O)C6CC6)c5)n4)cc3N3CCC(C)(CO)CC3)cc2)CC1 [Example 164, (1-(2-((2-(1-(Cyclopropylsulfonyl)-1H-pyrazol-4-yl)pyrimidin-4-yl)amino)-5-((4-((4-methylpiperazin-1-yl)methyl)phenyl)ethynyl)pyridin-4-yl)-4-methylpiperidin-4-yl)methanol] | 0.7 nM | 0.6 nM | 0.2 nM | 0.5 nM | 0.9 nM | 1.6 nM | 0.6 nM | 2.2 nM | 1.5 nM | 236 nM |  |  |  |  | 
CC(C)Nc1cc(Nc2ccnc(-c3cnn(S(=O)(=O)C4CC4)c3)n2)ncc1C#CCN1CCS(=O)(=O)CC1 [Example 201, 4-(3-(6-((2-(1-(Cyclopropylsulfonyl)-1H-pyrazol-4-yl)pyrimidin-4-yl)amino)-4-(isopropylamino)pyridin-3-yl)prop-2-yn-1-yl)thiomorpholine 1,1-dioxide] | 1.7 nM |  | 1.2 nM |  | 36.7 nM |  | 141 nM |  | 292 nM |  |  |  |  |  | 
Cn1cc(C#Cc2cnc(Nc3ccnc(-c4cnn(S(=O)(=O)C5CC5)c4)n3)cc2N2CCC(N3CC(F)(F)C3)CC2)cn1 [Example 128, 2-(1-(Cyclopropylsulfonyl)-1H-pyrazol-4-yl)-N-(4-(4-(3,3-difluoroazetidin-1-yl)piperidin-1-yl)-5-((1-methyl-1H-pyrazol-4-yl)ethynyl)pyridin-2-yl)pyrimidin-4-amine] |  | 7.1 nM |  | 4.8 nM |  | 29.5 nM |  | 73 nM |  | > 10000 nM |  |  |  |  | 
CC1(C#Cc2cnc(Nc3ccnc(-c4cnn(S(=O)(=O)C5CC5)c4)n3)cc2N2CCC(C)(CO)CC2)CC1 [Example 358, (1-(2-((2-(1-(Cyclopropylsulfonyl)-1H-pyrazol-4-yl)pyrimidin-4-yl)amino)-5-((1-methylcyclopropyl)ethynyl)pyridin-4-yl)-4-methylpiperidin-4-yl)methanol] |  | 1.7 nM |  | 1.6 nM |  | 3.7 nM |  | 30.2 nM |  | 6280 nM | 1.2 nM | 0.7 nM | 1.9 nM | 3.8 nM | 22.9 nM

Source: patent US11981658B2, “Substituted aminopyridine compounds as EGFR inhibitors” (YUHAN CORPORATION, priority 2021, dated 2024)
